molecular target: T1, KRAS G12C 1-169, his-tagged protein, GDP-loaded (Homo sapiens, UniProt P01116, G12C); experiment: Biochemical assay: covalent modification of KRAS G12C, analysed by mass spectrometry (RapidFire/TOF or Q-Exactive); format: binding; details: Modification activity, modification percentage from MS peak intensities
T1 construct: KRAS G12C 1-169, his-tagged protein, GDP-loaded; His tag
Description: Test compounds are prepared as 10 mM stock solutions in DMSO (Fisher cat. #BP-231-100). KRAS G12C 1-169, his-tagged protein, GDP-loaded is diluted to 2 μM or 0.5 μM in buffer (20 mM Hepes, 150 mM NaCl, 1 mM MgCl2). Compounds are tested for activity as follows:
Compounds are diluted to 50× final test concentration in DMSO in 96-well storage plates. Compound stock solutions are vortexed before use and observed carefully for any sign of precipitation. Dilutions are as follow: • For 32 μM final compound concentration, compounds are diluted to 1600 μM (3 μL 10 mM compound stock+15.75 μL DMSO and mixed well by pipetting. • For 8 μM final compound concentration, compounds are diluted to 400 μM (2 μL 10 mM compound stock+48 μL DMSO) and mixed well by pipetting. 49 μL of the stock protein solution is added to each well of a 96-well PCR plate (Fisher cat #1423027). 1 μl of the diluted 50× compounds are added to appropriate wells in the PCR plate using 12-channel pipettor. Reactions are mixed carefully and thoroughly by pipetting up/down with a 200 μL multi-channel pipettor. The plate is sealed well with aluminum plate seal, and protein and compound are allowed to react for a desired amount of time. 5 μL of 2% formic acid (Fisher cat #A117) in de-ionized H2O is then added to each well followed by mixing with a pipette to quench the reaction. The plate is then resealed with aluminum seal and stored frozen on dry ice until analyzed as described below.
The above described assays are analyzed by mass spectrometry according to one of the following two procedures:
The MS instrument is set to positive polarity, 2 GHz resolution, and low mass (1700) mode and allowed to equilibrate for 30 minutes. The instrument is then calibrated, switched to acquisition mode and the appropriate method loaded.
After another 30 minute equilibration time, a blank batch (i.e., buffer) is run to ensure equipment is operating properly. The samples are thawed at 37° C. for 10 minutes, briefly centrifuged, and transfer to the bench top. Wells A1 and H12 are spiked with 1 μL 500 μM internal standard peptide, and the plates centrifuged at 2000×g for 5 minutes. The method is then run and masses of each individual well recorded.
The masses (for which integration data is desired) for each well are pasted into the platemap and exported from the analysis. Masses for the internal standards are exported as well. The data at 50 ppm is extracted for the +19 charge state, and identity of well A1 is assigned using the internal standard spike and integrated. Peak data is exported as a TOF list and the above steps are repeated individually, for the +20, +21, +22, +23, +24, and +25 charge states.
The masses and peak intensities of KRAS G12C protein species are measured using a Dionex RSLCnano system (Thermo Scientific) connected to a Q Exactive Plus mass spectrometer (Thermo Scientific).
20 μL of sample is each loaded onto a Aeris™ 3.6 μm WIDEPORE C4 200 Å, LC Column 50×2.1 mm column maintained at 40° C. at a flow rate of 600 μL/min with 80% Solvent A (0.1% formic acid in H2O) and 20% Solvent B (0.1% formic acid in acetonitrile). The liquid chromatography conditions are 20% solvent B for 1 minute, 20% to 60% solvent B for 1.5 minutes, 60% to 90% solvent for 0.5 minute, 90% solvent B for 0.2 minute, 90% to 20% solvent B for 0.2 minute, and then equilibrated for 1.6 minute before the following sample injection. The flow rate is maintained at 600 μL/min throughout the sample analysis.
The mass spectrometer is operated in profile mode at a resolution of 17500, 5 microscans, using 50 msec max injection time and an AGC target of 1×10^6, and a full mass range from 800-1850 m/z is recorded. The intact protein mode is applied for optimal ion transfer and maximum sensitivity. The ionization method is electrospray ionization, which used a spray voltage of 4 kV, sheath gas flow set to 50 AU, auxiliary gas flow set to 10 AU and sweep gas flow set to 1 AU. […]

Structure (SMILES)	Binding %
C=CC(=O)N1CC2(CCN(c3nc(N4CC5CN(C)CC5C4)nc(-c4c(C)ccc5[nH]ncc45)c3C#N)C2)C1 (stereo not drawn) [Compound I-39, 4-(2-acryloyl-2,6-diazaspiro[3.4]octan-6-yl)-6-(5-methyl-1H-indazol-4-yl)-2-(5-methylhexahydropyr-rolo[3,4-c]pyrrol-2(1H)-yl)pyrimidine-5-carbonitrile]	+ (+ indicates binding activity greater than 0% and up to 50%)
C=CC(=O)N1CC2(CCN(c3nc(N4CCC5CCN(C)C5C4)nc(-c4c(C)ccc5[nH]ncc45)c3C#N)C2)C1 (stereo not drawn) [Compound I-40, 4-(2-acryloyl-2,6-diazaspiro[3.4]octan-6-yl)-6-(5-methyl-1H-indazol-4-yl)-2-(1-methyloctahydro-6H-pyrrolo[2,3-c]pyridin-6-yl)pyrimidine-5-carbonitrile]	+++ (+++ indicates binding activity greater than 85%)
C=CC(=O)N1CC2(CCN(c3nc(NC(=O)c4ccccn4)nc(-c4c(C)ccc5[nH]ncc45)c3C#N)C2)C1 [Compound I-41, N-(4-(2-acryloyl-2,6-diazaspiro[3.4]octan-6-yl)-5-cyano-6-(5-methyl-1H-indazol-4-yl)pyrimidin-2-yl)picolinamide]	+++ (+++ indicates binding activity greater than 85%)
C=CC(=O)N1CC2(CCN(c3nc(OC4CCN(C)CC4)nc(-c4c(C)ccc5[nH]ncc45)c3C#N)C2)C1 [Compound I-43, 4-(2-acryloyl-2,6-diazaspiro[3.4]octan-6-yl)-6-(5-methyl-1H-indazol-4-yl)-2-((1-methylpiperidin-4-yl)oxy)pyrimidine-5-carbonitrile]	+++ (+++ indicates binding activity greater than 85%)
C=CC(=O)N1CC2(CCN(c3nc(OC[C@@H]4CCCN4C)nc(Nc4cccc(C(N)=O)c4)c3C#N)C2)C1 [Compound I-44, (S)-3-((6-(2-acryloyl-2,6-diazaspiro[3.4]octan-6-yl)-5-cyano-2-((1-methylpyrrolidin-2-yl)methoxy)pyrimidin-4-yl)amino)benzamide]	+ (+ indicates binding activity greater than 0% and up to 50%)
C=CC(=O)N1CC2(CCN(c3nc(OC[C@@H]4CCCN4C)nc(-c4c(F)cccc4C(N)=O)c3C#N)C2)C1 [Compound I-45, 2-(6-(2-acryloyl-2,6-diazaspiro[3.4]octan-6-yl)-5-cyano-2-(((S)-1-methylpyrrolidin-2-yl)methoxy)pyrimidin-4-yl)-3-fluorobenzamide]	+ (+ indicates binding activity greater than 0% and up to 50%)
C=CC(=O)N1CC2(CCN(c3nc(N4CC5CCN(C)CC5C4)nc(-c4c(C)ccc5[nH]ncc45)c3C#N)C2)C1 (stereo not drawn) [Compound I-46, 4-(2-acryloyl-2,6-diazaspiro[3.4]octan-6-yl)-6-(5-methyl-1H-indazol-4-yl)-2-(5-methyloctahydro-2H-pyrrolo[3,4-c]pyridin-2-yl)pyrimidine-5-carbonitrile]	+++ (+++ indicates binding activity greater than 85%)
C=CC(=O)N1CC2(CCN(c3nc(N4CC5CCC(C4)N5C)nc(-c4c(C)ccc5[nH]ncc45)c3C#N)C2)C1 [Compound I-47, 4-(2-acryloyl-2,6-diazaspiro[3.4]octan-6-yl)-6-(5-methyl-1H-indazol-4-yl)-2-(8-methyl-3,8-diazabicyclo[3.2.1]oc-tan-3-yl)pyrimidine-5-carbonitrile]	+++ (+++ indicates binding activity greater than 85%)
C=CC(=O)N1CC2(CCN(c3nc(OCCc4ccccn4)nc(-c4c(C)ccc5[nH]ncc45)c3C#N)CC2)C1 [Compound I-75, 4-(2-acryloyl-2,7-diazaspiro[3.5]nonan-7-yl)-6-(5-methyl-1H-indazol-4-yl)-2-(2-(pyridin-2-yl)ethoxy)pyrimidine-5-carbonitrile]	++ (++ indicates binding activity from 50 to 85%)
C=CC(=O)N1CC2(CCN(c3nc(N4CCOCC4)nc(-c4c(C)ccc5[nH]ncc45)c3C#N)C2)C1 [Compound I-76, 4-(2-acryloyl-2,6-diazaspiro[3.4]octan-6-yl)-6-(5-methyl-1H-indazol-4-yl)-2-morpholinopyrimidine-5-carbonitrile]	++ (++ indicates binding activity from 50 to 85%)
C=CC(=O)N1CC2(CCN(c3nc(N4CCC5(CCN(C)C5)C4)nc(-c4c(C)ccc5[nH]ncc45)c3C#N)C2)C1 (stereo not drawn) [Compound I-77, 4-(2-acryloyl-2,6-diazaspiro[3.4]octan-6-yl)-6-(5-methyl-1H-indazol-4-yl)-2-(7-methyl-2,7-diazaspiro[4.4]nonan-2-yl)pyrimidine-5-carbonitrile]	+++ (+++ indicates binding activity greater than 85%)
C=CC(=O)N1CC2(CCN(c3nc(N4CCOCC4)nc(-c4c(C)ccc5[nH]nc(C)c45)c3C#N)C2)C1 [Compound I-78, 4-(2-acryloyl-2,6-diazaspiro[3.4]octan-6-yl)-6-(3,5-dimethyl-1H-indazol-4-yl)-2-morpholinopyrimidine-5-carbonitrile]	+++ (+++ indicates binding activity greater than 85%)
C=CC(=O)N1CC2(CCN(c3nc(N4CCOCC4)nc(-c4c(C)ccc5c4cnn5C)c3C#N)C2)C1 [Compound I-79, 4-(2-acryloyl-2,6-diazaspiro[3.4]octan-6-yl)-6-(1,5-dimethyl-1H-indazol-4-yl)-2-morpholinopyrimidine-5-carbonitrile]	+ (+ indicates binding activity greater than 0% and up to 50%)
C=CC(=O)N1CC2(CCN(c3nc(N4CCOCC4)nc(-c4cc(O)cc5ccccc45)c3C#N)C2)C1 [Compound I-80, 4-(2-acryloyl-2,6-diazaspiro[3.4]octan-6-yl)-6-(3-hydroxynaphthalen-1-yl)-2-morpholinopyrimidine-5-carbonitrile]	+++ (+++ indicates binding activity greater than 85%)
C=CC(=O)N1CC2(CCN(c3nc(OC[C@@H]4CN(C)CCO4)nc(-c4c(C)ccc5[nH]ncc45)c3C#N)C2)C1 [Compound I-81, 4-(2-acryloyl-2,6-diazaspiro[3.4]octan-6-yl)-6-(5-methyl-1H-indazol-4-yl)-2-(((S)-4-methylmorpholin-2-yl)methoxy)pyrimidine-5-carbonitrile]	+++ (+++ indicates binding activity greater than 85%)
C=CC(=O)N1CC2(CCN(c3nc(OC[C@@H]4CCCN4C)nc(-c4c(C)ccc5cn[nH]c45)c3C#N)C2)C1 [Compound I-82, 4-(2-acryloyl-2,6-diazaspiro[3.4]octan-6-yl)-6-(6-methyl-1H-indazol-7-yl)-2-(((S)-1-methylpyrrolidin-2-yl)methoxy)pyrimidine-5-carbonitrile]	+ (+ indicates binding activity greater than 0% and up to 50%)
C/C=C/C(=O)N1CC2(CCN(c3nc(N4CCOCC4)nc(-c4c(C)ccc5[nH]ncc45)c3C#N)C2)C1 [Compound I-83, (E)-4-(2-(but-2-enoyl)-2,6-diazaspiro[3.4]octan-6-yl)-6-(5-methyl-1H-indazol-4-yl)-2-morpholinopyrimidine-5-carbonitrile]	+ (+ indicates binding activity greater than 0% and up to 50%)
CC#CC(=O)N1CC2(CCN(c3nc(N4CCOCC4)nc(-c4c(C)ccc5[nH]ncc45)c3C#N)C2)C1 [Compound I-84, 4-(2-(but-2-ynoyl)-2,6-diazaspiro[3.4]octan-6-yl)-6-(5-methyl-1H-indazol-4-yl)-2-morpholinopyrimidine-5-carbonitrile]	+ (+ indicates binding activity greater than 0% and up to 50%)

From US12134620B2 (ARAXES PHARMA LLC, priority 2018, dated 2024)
